In brackets after ≈: the same amount, converted by molar mass. Activity calls are given as the source filed them. The rule behind the calls is not given here.
Experiments:
[1] = system: KB; test: Antiproliferative activity against human KB cells after 72 hrs by MTT assay; assay type: functional, cell-based
[2] = system: HCT-8; test: Antiproliferative activity against human HCT8 cells after 72 hrs by MTT assay; assay type: functional, cell-based; settings: HCT-8, 72 h
[3] = system: MDA-MB-231; test: Antiproliferative activity against human MDA-MB-231 cells after 72 hrs by MTT assay; assay type: functional, cell-based; settings: MDA-MB-231, 72 h
[4] = Aqueous solubility in pH 7.4 phosphate buffer by HPLC analysis; assay type: physicochemical
[5] = Antitumor activity against […] H22 cells xenografted in ICR mouse assessed as reduction in tumor weight at 20 mg/kg, iv qd for 21 consecutive days and measured every 2 days relative to control; assay type: functional; set-up: scale not given: the % may be the effect or the level left
[6] = Toxicity in ICR mouse xenografted with […] cells assessed as decrease in body weight at 10 to 20 mg/kg, iv qd administered for 21 days and measured every 2 days; assay type: organism-based; settings: in vivo
[7] = system: K562; test: Antiproliferative activity against human K562 cells after 72 hrs by MTT assay; assay type: functional, cell-based; settings: K562, 72 h
[8] = Antitumor activity against […] H22 cells xenografted in ICR mouse assessed as reduction tumor weight at 8 mg/kg, iv administered every 2 days for 21 days and measured every 2 days relative to control; assay type: functional
[9] = Toxicity in ICR mouse xenografted with […] cells assessed as decrease in body weight at 8 mg/kg, iv administered every 2 days for 21 days and measured every 2 days; assay type: organism-based; settings: in vivo
[10] = system: HepG2; test: cells; settings: Homo sapiens, HepG2, 72 h
[11] = system: L02; test: Cytotoxicity against human LO2 cells after 72 hrs by MTT assay; assay type: cell-based; settings: L02, 72 h
[12] = Selectivity index, ratio of IC50 for human LO2 cells to IC50 for human HepG2 cells; assay type: toxicity; settings: LO2 cells and HepG2 cells, read-out: Ratio IC50
[13] = system: K562; test: Cell cycle arrest in human K562 cells assessed as decrease in cdc2 expression after 48 hrs by Western blot analysis; assay type: functional, cell-based
[14] = system: K562; test: Cell cycle arrest in human K562 cells assessed as decrease in cyclin B1 expression after 48 hrs by Western blot analysis; assay type: functional, cell-based
[15] = target: T1, Tubulin (Sus scrofa) (UniProt P02554+P02550); test: Inhibition of porcine brain tubulin polymerization measured every 2 mins for 60 mins by spectrophotometric analysis
[16] = target: T1, Tubulin (Sus scrofa); test: Inhibition of [3H]colchicine binding to biotinylated porcine tubulin at 1 uM after 2 hrs by scintillation proximity assay relative to control; assay type: protein assay
[17] = target: T1, Tubulin (Sus scrofa); test: Inhibition of [3H]colchicine binding to biotinylated porcine tubulin at 5 uM after 2 hrs by scintillation proximity assay relative to control; assay type: protein assay
[18] = system: K562; test: Cell cycle arrest in human K562 cells assessed as decrease in cdc25c expression after 48 hrs by Western blot analysis; assay type: functional, cell-based
[19] = system: K562; test: Induction of apoptosis in human K562 assessed as nuclear fragmentation at 5 to 20 nM after 48 hrs by Hoechst 33342 staining-based fluorescence microscopic analysis; assay type: functional, cell-based
[20] = system: K562; test: Induction of apoptosis in human K562 assessed as chromatin condensation at 5 to 20 nM after 48 hrs by Hoechst 33342 staining-based fluorescence microscopic analysis; assay type: functional, cell-based
[21] = system: K562; test: Induction of apoptosis in human K562 assessed as upregulation of Bad expression after 48 hrs by Western blot analysis; assay type: functional, cell-based
[22] = system: K562; test: Induction of apoptosis in human K562 assessed as upregulation of Bax expression after 48 hrs by Western blot analysis; assay type: functional, cell-based
[23] = system: K562; test: Induction of apoptosis in human K562 assessed as down regulation of Bcl-2 expression after 48 hrs by Western blot analysis; assay type: functional, cell-based
[24] = system: K562; test: Induction of apoptosis in human K562 assessed as down regulation of Bcl-xl expression after 48 hrs by Western blot analysis; assay type: functional, cell-based
[25] = system: K562; test: Induction of ROS generation in human K562 cells after 48 hrs by DCF-DA probe-based flow cytometric analysis; assay type: functional, cell-based
[26] = system: K562; test: Induction of ROS generation in human K562 cells up to 20 nM after 48 hrs in presence of N-acetyl-cycteine by DCF-DA probe-based flow cytometric analysis; assay type: functional, cell-based
[27] = system: MDA-MB-231; test: Antimigratory activity against human MDA-MB-231 cells after 48 hrs by transwell assay; assay type: functional, cell-based
[28] = system: MDA-MB-231; test: Antiinvasive activity against human MDA-MB-231 cells after 48 hrs by crystal violet staining-based transwell assay; assay type: functional, cell-based
[29] = system: HUVEC; test: Antimigratory activity against human HUVEC cells at 20 nM after 24 hrs by wound healing assay; assay type: functional, cell-based
[30] = system: HUVEC; test: Inhibition of tube formation in human HUVEC cells at 5 to 20 nM after 6 hrs by tube formation assay; assay type: functional, cell-based
[31] = system: Homo sapiens; test: Antitumor activity against […] H22 cells xenografted in ICR mouse assessed as reduction in tumor volume administered intravenously once daily for 21 consecutive days and measured every 2 days; assay type: functional
[32] = system: Homo sapiens; test: Antivascular activity against […] H22 cells xenografted in ICR mouse assessed as decrease in tumor microvessel density at 20 mg/kg, iv qd […] every 2 days for 21 days by CD31/hematoxylin staining-based immunohistochemistry assay; assay type: functional, organism-based
[33] = system: Homo sapiens; test: Antitumor activity against […] H22 cells xenografted in ICR mouse assessed as reduction in tumor weight administered intravenously once daily for 21 consecutive days and measured every 2 days; assay type: functional
[34] = system: Homo sapiens; test: Antitumor activity against […] H22 cells xenografted in ICR mouse assessed as reduction in tumor volume at 20 mg/kg, iv qd for 21 consecutive days and measured every 2 days relative to control; assay type: functional, organism-based
[35] = target: Tubulin (Homo sapiens) (UniProt P68371+Q9H4B7+P0DPH7+P68366+Q13509+Q71U36+P04350+Q3ZCM7+P07437+P68363+Q9BQE3+Q6PEY2+Q13885+Q9BVA1+Q9BUF5); test: Disruption of microtubule network in human K562 cells at 30 nM after 24 hrs by scanning confocal microscopic analysis

T1 sequence (P02550 whole entry, looked up): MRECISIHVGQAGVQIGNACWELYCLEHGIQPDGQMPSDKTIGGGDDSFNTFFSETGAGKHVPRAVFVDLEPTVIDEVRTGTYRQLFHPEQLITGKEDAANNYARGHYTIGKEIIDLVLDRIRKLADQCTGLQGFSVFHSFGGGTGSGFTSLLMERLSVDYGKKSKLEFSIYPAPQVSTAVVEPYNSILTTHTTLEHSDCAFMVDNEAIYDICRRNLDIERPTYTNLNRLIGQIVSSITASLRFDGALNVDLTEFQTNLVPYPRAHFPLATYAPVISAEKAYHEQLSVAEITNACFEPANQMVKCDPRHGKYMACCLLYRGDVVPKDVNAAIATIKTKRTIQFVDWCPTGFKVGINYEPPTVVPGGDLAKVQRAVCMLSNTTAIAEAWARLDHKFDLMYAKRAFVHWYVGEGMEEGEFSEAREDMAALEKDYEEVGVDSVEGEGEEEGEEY
T1 sequence (P02554 whole entry, looked up): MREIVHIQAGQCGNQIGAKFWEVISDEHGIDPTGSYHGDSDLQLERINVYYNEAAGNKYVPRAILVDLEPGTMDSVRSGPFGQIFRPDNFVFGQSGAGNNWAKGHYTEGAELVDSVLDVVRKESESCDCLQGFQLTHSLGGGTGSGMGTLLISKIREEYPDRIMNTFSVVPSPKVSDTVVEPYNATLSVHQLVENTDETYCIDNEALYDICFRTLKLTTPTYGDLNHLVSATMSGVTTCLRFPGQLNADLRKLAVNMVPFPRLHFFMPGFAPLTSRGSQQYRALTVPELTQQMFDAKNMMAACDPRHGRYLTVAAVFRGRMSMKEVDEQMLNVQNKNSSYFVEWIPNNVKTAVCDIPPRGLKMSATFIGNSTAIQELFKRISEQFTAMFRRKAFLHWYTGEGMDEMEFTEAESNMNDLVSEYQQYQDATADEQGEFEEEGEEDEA

## COc1ccc(/C=C/C(=O)c2cc(OC)c(OC)c(OC)c2)cc1O
[1]
  IC50: 108 nM
[2]
  IC50: 104 nM
[3]
  IC50: 102 nM
[4]
  solubility: 3.2 µg/mL (≈ 9.29 µM)

## COc1ccc(/C=C(\C)C(=O)c2cc(C)nc3ccccc23)cc1O.Cl
[4]
  solubility: > 1000 µg/mL
[5]
  Activity: 68.9%
[6]
  Activity: Non-Toxic

## COc1ccc(CNc2cc(C(=O)/C(C)=C/c3ccc(OC)c(O)c3)c3ccccc3n2)cc1
[7]
  IC50: 330 nM

## COc1ccc(/C=C(\C)C(=O)c2cc(=O)[nH]c3ccccc23)cc1O
[7]
  IC50: 1240 nM

## CC(=O)O[C@H]1C(=O)[C@@]2(C)[C@H]([C@H](OC(=O)c3ccccc3)[C@]3(O)C[C@H](OC(=O)[C@H](O)[C@@H](NC(=O)c4ccccc4)c4ccccc4)C(C)=C1C3(C)C)[C@]1(OC(C)=O)CO[C@@H]1C[C@@H]2O [PACLITAXEL]
[8]
  inhibition in vivo at 8 mg/kg: 90.4%
[9]
  Activity: Toxic

## COc1ccc(/C=C/C(=O)c2cc(C)nc3ccccc23)cc1O
[7]
  IC50: 127 nM
[1]
  IC50: 123 nM
[2]
  IC50: 137 nM
[3]
  IC50: 112 nM
[10]
  IC50: 121 nM

## COc1ccc(/C=C(\C)C(=O)c2cc(C)nc3ccccc23)cc1OC
[7]
  IC50: 1060 nM

## CNc1cc(C(=O)/C(C)=C/c2ccc(OC)c(O)c2)c2ccccc2n1
[7]
  IC50: 18 nM
[1]
  IC50: 29 nM
[2]
  IC50: 40 nM
[3]
  IC50: 43 nM
[11]
  IC50: 1090 nM
[12]
  selectivity ratio: 40.2
[10]
  IC50: 27 nM

## COc1ccc(/C=C(\C)C(=O)c2cc(Cl)nc3ccccc23)cc1O
[7]
  IC50: 53 nM
[1]
  IC50: 237 nM
[2]
  IC50: 227 nM
[3]
  IC50: 183 nM
[10]
  IC50: 187 nM

## COc1ccc(/C=C(\C)C(=O)c2cc(C)nc3ccccc23)cc1
[7]
  IC50: 108 nM

## COc1ccc(/C=C(\C)C(=O)c2cc(C=O)nc3ccccc23)cc1O
[7]
  IC50: 110 nM

## COc1ccc(/C=C(\C)C(=O)c2ccnc3ccccc23)cc1O
[7]
  IC50: 15 nM
[1]
  IC50: 26 nM
[2]
  IC50: 37 nM
[3]
  IC50: 30 nM
[11]
  IC50: 928 nM
[12]
  selectivity ratio: 38.7
[10]
  IC50: 24 nM

## CCNc1cc(C(=O)/C(C)=C/c2ccc(OC)c(O)c2)c2ccccc2n1
[7]
  IC50: 40 nM

## C/C(=C\c1cccc2[nH]ccc12)C(=O)c1cc(C)nc2ccccc12
[7]
  IC50: > 1000 nM

## COc1ccc(/C=C(\C)C(=O)c2cc(NC3CC3)nc3ccccc23)cc1O
[7]
  IC50: 58 nM

## COc1ccc(/C=C(\C)C(=O)c2cc(C)nc3ccccc23)cc1O
[13]
  Activity: Dose-dependent effect
[14]
  Activity: Dose-dependent effect
[15]
  inhibition: Dose-dependent effect
[16]
  inhibition: 79.4%
[17]
  inhibition: 92.7%
[18]
  Activity: Dose-dependent effect
[19]
  Activity: Active
[20]
  Activity: Active
[21]
  Activity: Dose-dependent effect
[22]
  Activity: Dose-dependent effect
[23]
  Activity: Dose-dependent effect
[24]
  Activity: Dose-dependent effect
[25]
  Activity: Dose-dependent effect
[26]
  Activity: inactive
[27]
  Activity: Dose-dependent effect
[28]
  Activity: Dose-dependent effect
[29]
  Activity: Active
[30]
  inhibition: Active
[31]
  Activity: Dose-dependent effect
[32]
  Activity: Active
[33]
  Activity: Dose-dependent effect
[34]
  Activity: Active
[35]
  Activity: Active

## COc1ccc(/C=C(\C)C(=O)c2cc(CO)nc3ccccc23)cc1O
[7]
  IC50: 50 nM
[1]
  IC50: 231 nM
[2]
  IC50: 242 nM
[3]
  IC50: 209 nM
[10]
  IC50: 165 nM

## CSc1ccc(/C=C(\C)C(=O)c2cc(C)nc3ccccc23)cc1
[7]
  IC50: 563 nM

## Cc1cc(C(=O)/C=C/c2ccc3[nH]ccc3c2)c2ccccc2n1
[7]
  IC50: > 1000 nM

## C/C(=C\c1ccc2c(ccn2C)c1)C(=O)c1cc(C)nc2ccccc12
[7]
  IC50: 74 nM
[1]
  IC50: 124 nM
[2]
  IC50: 135 nM
[3]
  IC50: 220 nM
[10]
  IC50: 111 nM

## COc1ccc(/C=C\c2cc(OC)c(OC)c(OC)c2)cc1O [COMBRETASTATIN A4]
[7]
  IC50: 11 nM

## COc1ccc(/C=C(\C)C(=O)c2cc(C)nc3ccccc23)cc1F
[7]
  IC50: 69 nM

## COc1ccc2c(/C=C(\C)C(=O)c3cc(C)nc4ccccc34)c[nH]c2c1
[7]
  IC50: > 1000 nM

## COc1ccc(/C=C/C(=O)c2cc(C)nc3ccccc23)cc1N
[7]
  IC50: 850 nM
[1]
  IC50: 189 nM
[2]
  IC50: 210 nM
[3]
  IC50: 195 nM
[10]
  IC50: 223 nM

## COc1ccc(/C=C(\C)C(=O)c2cc(N3CCOCC3)nc3ccccc23)cc1O
[7]
  IC50: 153 nM

## COc1cc(C(=O)/C(C)=C/c2ccc(OC)c(O)c2)c2ccccc2n1
[7]
  IC50: 26 nM
[1]
  IC50: 52 nM
[2]
  IC50: 61 nM
[3]
  IC50: 52 nM
[11]
  IC50: 914 nM
[12]
  selectivity ratio: 24.1
[10]
  IC50: 38 nM

## COc1ccc2c(/C=C/C(=O)c3cc(C)nc4ccccc34)c[nH]c2c1
[7]
  IC50: > 1000 nM

## CCOC(=O)c1cc(C(=O)/C(C)=C/c2ccc(OC)c(O)c2)c2ccccc2n1
[7]
  IC50: 120 nM

## Cc1cc(C(=O)/C=C/c2cccc3[nH]ccc23)c2ccccc2n1
[7]
  IC50: > 1000 nM

## COc1ccc(/C=C(\C)C(=O)c2cc(C)nc3ccccc23)cc1N
[7]
  IC50: 11 nM
[1]
  IC50: 25 nM
[2]
  IC50: 36 nM
[3]
  IC50: 63 nM
[11]
  IC50: 923 nM
[12]
  selectivity ratio: 25.6
[10]
  IC50: 36 nM

## C/C(=C\c1ccc2[nH]ccc2c1)C(=O)c1cc(C)nc2ccccc12
[7]
  IC50: 346 nM
[1]
  IC50: 429 nM
[2]
  IC50: 421 nM
[3]
  IC50: 425 nM
[10]
  IC50: 226 nM

## COc1ccc(/C=C(\C)C(=O)c2cc(N3CCCC3)nc3ccccc23)cc1O
[7]
  IC50: 315 nM

## COc1ccc(/C=C(\C)C(=O)c2cc(N(C)C)nc3ccccc23)cc1O
[7]
  IC50: 49 nM
[1]
  IC50: 43 nM
[2]
  IC50: 52 nM
[3]
  IC50: 48 nM
[10]
  IC50: 57 nM

From ChEMBL document CHEMBL4330075, “Discovery of Novel Quinoline-Chalcone Derivatives as Potent Antitumor Agents with Microtubule Polymerization Inhibitory Activity” (J Med Chem, 2019)
